In general, EC50 refers to the concentration at which the effect is half-maximal.

EC50 data for 98 compounds are collected here from PubChem BioAssay AID2423 (Broad Institute, 2010).

Records with an inconclusive call do not appear. Active and inactive are the calls of the source. The rule behind the calls is not given here.

This assay relates to C. albicans CaCi-8 + fluconazole, Alamar Blue growth, 48 h. Put plainly: resistant C. albicans growth inhibition with fluconazole, dose response, CaCi-8 strain, Alamar Blue fluorescence (AID 2423).

Turning to `CCOc1cccc(-c2c(C(=O)N/N=C(\C)c3ccccn3)nnn2-c2nonc2N)c1`, the half-maximal effective concentration (EC50) was 15600 nM.
Turning to `CC[n+]1c(/C=C/C=C/c2ccc(N(C)C)cc2)sc2ccccc21`, the EC50 was < 120 nM.
For the compound `O=c1[nH]c(=S)[nH]nc1Cc1ccc(Cl)c(Cl)c1`, the concentration for a half-maximal effect (EC50) is 1400 nM.
`O=[N+]([O-])c1ccc(O)c(P(=O)(c2ccccc2)c2ccccc2)c1`: the EC50 is > 15000 nM (inactive).
Next, `COc1cccc(C(=O)Oc2c(CN3CCOCC3)cc(Cl)c3cccnc23)c1`: 1950 nM; `CCOc1ccccc1NC(=O)C(=O)N/N=C/c1cc(Br)ccc1O`: 1380 nM; `Cc1ccc(C)c(-c2nnc(NC(=O)c3ccco3)o2)c1`: 957 nM.
For `Nc1[nH]c(=O)ncc1F`, the EC50 is 711 nM.
As for `Cc1ccc(NC(=O)c2noc(C(C)C)c2[N+](=O)[O-])cc1`, the EC50 is 3200 nM.
Next, `CCN(CC)c1ccc2cc(S(=O)(=O)c3ccc(C)cc3)c(=O)oc2c1`: 657 nM.
The result for `O=C(N/N=C/c1ccc(O)c(O)c1O)/C(=C/c1ccc([N+](=O)[O-])cc1)NC(=O)c1ccccc1` reads 807 nM.
The result for `Cc1cc(NC(c2ccc(Cl)cc2)c2ccc3cccnc3c2O)no1` (stereo not drawn) reads 598 nM; that for `Cc1cc([N+](=O)[O-])ccc1-c1ccc(C2Nc3ccccc3C(=O)N2O)o1` (stereo not drawn), 2440 nM.
On to `FC(F)(F)COc1nc(OCC(F)(F)F)nc(N2CCN(c3ccccc3)CC2)n1`, for which the EC50 is > 16000 nM (inactive).
The result for `Cc1ccc2ccc3ccc(C)nc3c2n1` reads 999 nM.
The result for `Cc1ccc2[nH]c(C)c(/C=C/c3cc[n+](C)cc3)c2c1` reads 2910 nM; that for `O=C(N/N=C/c1ccc[nH]1)c1cc2ccccc2cc1O`, 3940 nM; that for `CCCc1nnc(NC(=S)Nc2ccccc2)s1`, 1340 nM.
The result for `Cc1cccc(Cc2cnc(N3C(=N)SC(C)C3=O)s2)c1` (stereo not drawn) reads > 16000 nM (inactive); that for `CCOC(=O)c1c(NC(=O)CN2CCN(C(=O)c3ccco3)CC2)sc2c1CCCC2`, > 15000 nM (inactive).
With `O=[N+]([O-])c1ccc(O)c2ncccc12`, the EC50 is 681 nM.
In the case of `COc1ccc(-c2nc(-c3ccncc3)no2)cc1OC`, the EC50 was 7540 nM.
The result for `CN(C)c1ccc(NC(=O)C2C3C=CC(C3)C2C(=O)O)cc1` (stereo not drawn) reads > 16000 nM (inactive); that for `O=C(/C=C/c1ccco1)Oc1cc(Br)cc(/C=N/NC(=O)c2ccccc2O)c1`, 3320 nM.
Next, `O=C(Nc1nnc(COc2ccc(F)cc2)s1)c1ccco1`: 7770 nM; `Cc1ccc(Nc2cc(C)nn2-c2nc(C)cc(=O)[nH]2)cc1`: < 120 nM.
The result for `O=Cc1cc(N=Nc2ccccc2Cl)ccc1O` reads 6390 nM; that for `COc1ccc(-c2cc(C3CCN(Cc4cccc(C(F)(F)F)c4)CC3)[nH]n2)cc1`, 8130 nM.
On to `CC(C)C(Sc1nc(-c2ccccc2)cc(-c2ccccc2)c1C#N)C(=O)O` (stereo not drawn), for which the EC50 was 3770 nM.
The result for `Cc1c(CCOC(=O)CC23CC4CC(CC(C)(C4)C2)C3)sc[n+]1Cc1ccc([N+](=O)[O-])cc1` reads 11900 nM.
Take `O=C(Nc1cccc(Cl)c1)Nc1nccs1`: the EC50 was 146 nM.
The result for `BrC(=C\c1ccccc1)/C=N/n1cnnc1` reads 1570 nM.
As to `COc1cc(/C=C/C(=O)Nc2cccnc2)cc(OC)c1OC`, the EC50 is > 16000 nM (inactive).
The result for `O=Nc1c(O)n(Cc2cccc(C(F)(F)F)c2)c2ccccc12` reads 932 nM.
Consider `CN(C)S(=O)(=O)Oc1cccc(C(=O)Nc2cccc(Cl)c2)c1`, for which the EC50 was 1350 nM.
For `COc1ccc(OC)c(NC(=O)c2c3c(nc4ccccc24)CCC3)c1`, the EC50 was 6600 nM.
Turning to `Cc1ccc(C)c(NC(=S)NNC(=O)c2csc(C)c2)c1`, the EC50 was 704 nM.
Regarding `N#C/C(=C\c1ccc(OC(=O)c2cccs2)cc1)c1nc2ccccc2[nH]1`, the EC50 is 3210 nM.
As for `Cc1oc2ccc(OC(=O)N(C)C)cc2c1C(=O)OC(C)C`, the EC50 is 4000 nM.
As for `c1ccc2c(c1)OCC(CNc1ncnc3sccc13)O2` (stereo not drawn), the EC50 is 4010 nM.
Next, `Cn1c(=O)cc(OCCCC(=O)Nc2cccnc2)c2ccccc21`: > 16000 nM (inactive); `COc1ccc(-c2nnc(NC(=O)c3ccc(F)cc3)o2)cc1`: 246 nM.
For `COc1cccc(/C=N/NC(=O)c2c(C)nc3ccc(Br)cn23)c1O`, the EC50 was 642 nM.
The result for `CCOC(=O)c1cnc2ccc(C)cc2c1Nc1ccc(N2CCOCC2)cc1` reads 1100 nM; that for `COc1ccc(-c2nnc(Nc3nc4c(OC)cccc4s3)o2)c(OC)c1`, 2710 nM; that for `Cc1nc2ccc(NC(=O)COc3ccccc3)cc2s1`, 5370 nM.
Next, `C/C(=N\NC(=O)CSCc1ccccc1Cl)c1cc(O)ccc1O`: > 16000 nM (inactive); `O=C(N/N=C/c1sc(N2CCOCC2)nc1-c1ccccc1)c1cccc(S(=O)(=O)N2CCOCC2)c1`: 1150 nM; `C/C(=N/NC(=O)c1ccccc1O)c1ccc(N2C(=O)C3CCCCC3C2=O)cc1` (stereo not drawn): > 16000 nM (inactive).
Take `CCc1nn(CCCC(=O)NCc2ccc(C)cc2)c(=O)c2cc3occc3n12`: the EC50 was > 16000 nM (inactive).
The result for `CCCn1nnnc1NC(=O)c1ccc2ccccc2c1` reads 1660 nM; that for `O=C(CC(NCCN1CCOCC1)C(=O)O)Nc1cccc(Cl)c1` (stereo not drawn), > 16000 nM (inactive).
Next, `O=C1C(Nc2ccccc2)=C/C(=N/S(=O)(=O)c2cccs2)c2ccccc21`: 3340 nM; `CCN(CC)Cc1ccc(NC(=O)c2sc3cc(Cl)ccc3c2Cl)cc1`: 1080 nM.
Take `COc1ccc(-n2cccc2/C=C2\C(=N)N3N=C(C(C)C)SC3=NC2=O)cc1`: the EC50 is 16300 nM.
For the compound `CC12CCC(C(=O)Nc3ncc([N+](=O)[O-])s3)(OC1=O)C2(C)C` (stereo not drawn), the EC50 was > 16000 nM (inactive).
Next, `Oc1ccc(CN2CCCCC2)c2cccnc12`: 16100 nM; `O=C(CCS(=O)(=O)c1ccccc1)Nc1ncc([N+](=O)[O-])s1`: > 15000 nM (inactive).
The result for `CN(C)c1cc[n+](CC(=O)c2ccc(-c3ccccc3)cc2)cc1` reads 4980 nM.
The result for `Cc1cccc(C2c3[nH]c4ccccc4c3CCN2C(=O)c2cc(-c3cccn3C)n[nH]2)n1` (stereo not drawn) reads 1050 nM; that for `CC(C)(C)c1ccc(CSc2cnn(C(C)(C)C)c(=O)c2Cl)cc1`, 324 nM; that for `CCN(CC)S(=O)(=O)c1cc(OC)ccc1N=Nc1ccc(O)c2ncccc12`, 1560 nM.
With `CCC(=O)NC(c1ccco1)c1cc(Cl)c2cccnc2c1O` (stereo not drawn), the EC50 is 788 nM.
In the case of `Cc1nn(CC(=O)NCCCc2ccccc2)c(C)c1[N+](=O)[O-]`, the EC50 is > 15000 nM (inactive).
Next, `O=C(c1ccc(C(=O)N2CCN(c3ccccc3F)CC2)nc1)N1CCN(c2ccccc2F)CC1`: > 16000 nM (inactive); `COc1ccc(O)c(/C=N/NC(=O)c2ccc(CSc3nc(C)cc(C)n3)cc2)c1`: 1760 nM; `N#C/C(=C\c1ccc(O)c(O)c1)C(=O)Nc1cccc2ncccc12`: > 15000 nM (inactive).
Next, `CN(C)CCCNc1cc(C(C)(C)C)nc2c(-c3ccc(Cl)cc3)cnn12`: 5200 nM.
`Cc1sc(NC(=O)c2ccc(Br)s2)c(C(N)=O)c1C`: the EC50 was 952 nM.
In the case of `CCCCC(=O)NC(c1ccc(N(CC)CC)cc1)c1ccc2cccnc2c1O` (stereo not drawn), the EC50 is 468 nM.
The result for `COc1ccc(OC)c(/C=C2\SC(=S)N(NS(=O)(=O)c3ccc(C)cc3)C2=O)c1` reads 1130 nM.
Next, `Cn1c(SC2=CS(=O)(=O)c3ccccc32)nc2ccccc21`: 2320 nM.
`COc1cc(NS(=O)(=O)c2ccc3ccccc3c2)c2ncccc2c1`: the EC50 is 2560 nM.
The result for `O=C(CSc1nnc(-c2ccco2)n1Cc1ccccc1)OC1CCCCC1` reads > 15000 nM (inactive); that for `Cc1cc(C)n(-c2nc(NCCN(C)C)c3c4c(sc3n2)CCCC4)n1`, 5130 nM.
On to `O=C1CCCN1CCCN=c1c([N+](=O)[O-])nn(-c2ccc(Cl)cc2)n1O`, for which the EC50 is 6120 nM.
As to `O=C(c1ccc(C(=O)N2CCCc3ccccc32)s1)N1CCCc2ccccc21`, the EC50 is 2990 nM.
Next, `Cc1scc(C(=O)N/N=C/c2ccc([N+](=O)[O-])o2)c1C`: 884 nM.
For `Cc1ccc(NC(=O)c2sc3nc(N)c(C#N)cc3c2N)cc1`, the EC50 was 625 nM.
Regarding `COc1ccc(NC(=O)C(=O)NNC(=O)c2ccc(Cl)cc2Cl)cc1`, the EC50 was 888 nM.
`CCCCOc1ccc(-c2cc(C(=O)NNC(=S)NCC)c3ccccc3n2)cc1`: the EC50 was 1060 nM.
The result for `Cc1nnc(NC(=O)c2ccc(S(=O)(=O)N(C)Cc3ccccc3)cc2)o1` reads 808 nM.
Next, `CC1(C)C(O)=C(c2nc3ccccc3[nH]2)C(=N)N1c1ccccc1`: 9820 nM; `COc1cnc(-c2ccccn2)nc1NC(C)C`: > 15000 nM (inactive); `CN(C)S(=O)(=O)c1cccc(NC(=S)N/N=C/c2cc(Br)ccc2O)c1`: 3840 nM.
The result for `Oc1c(C(c2ccccn2)N2CCOCC2)ccc2cccnc12` (stereo not drawn) reads 4860 nM; that for `CN(C)c1cc(N/N=C/c2ccc(Cl)cc2)nc(N(C)C)n1`, 695 nM.
For the compound `CCc1ccc(/C=C/C(=O)c2cc(Br)ccc(=O)c2O)cc1`, the EC50 was 833 nM.
`Cc1cccc(C(=O)CC(=O)c2cc(Cl)ccc2O)c1`: the EC50 is 2670 nM.
On to `O=C(NNC(=S)Nc1ccc(Cl)cc1)c1ccccc1OC(F)F`, for which the EC50 was 2600 nM.
The result for `CN1c2ccccc2N(C)C1(C)c1ccccc1` reads > 15000 nM (inactive); that for `N#C/C(=C\c1ccc(N2CCOCC2)cc1)c1ccccc1`, 492 nM.
In the case of `O=C(c1ccc(Cn2c(=O)[nH]c3ccccc3c2=O)cc1)N1CCN(c2ccc(F)cc2)CC1`, the EC50 was 3250 nM.
With `CCN=c1scc(C)n1/N=C/c1ccc(O)c(O)c1O`, the EC50 is > 15000 nM (inactive).
The result for `Cc1nnc(NC(=O)CSc2ncnc3c2cnn3-c2ccccc2C)s1` reads 446 nM; that for `Oc1[nH]c2ccc(Br)cc2c1N=NC(=S)N1CCOCC1`, 3100 nM.
Next, `CC(=O)Nc1ncnc2c1c(-c1ccc(Cl)cc1)nn2C(C)(C)C`: 1330 nM; `CCOC(=O)c1ccc(NC(=O)Cn2ncc(Cl)c(Cl)c2=O)cc1`: 894 nM.
